Assay results: ChEMBL document CHEMBL4118223, “New TRAP1 and Hsp90 chaperone inhibitors with cationic components: Preliminary studies on mitochondrial targeting” (Bioorg Med Chem Lett, 2018)
The source made the active and inactive calls. No cut-off for these calls is given here.

What was measured:
[1] = target: T1, Heat shock protein 75 kDa, mitochondrial (Homo sapiens, UniProt Q12931)
T1 sequence (Q12931 whole entry): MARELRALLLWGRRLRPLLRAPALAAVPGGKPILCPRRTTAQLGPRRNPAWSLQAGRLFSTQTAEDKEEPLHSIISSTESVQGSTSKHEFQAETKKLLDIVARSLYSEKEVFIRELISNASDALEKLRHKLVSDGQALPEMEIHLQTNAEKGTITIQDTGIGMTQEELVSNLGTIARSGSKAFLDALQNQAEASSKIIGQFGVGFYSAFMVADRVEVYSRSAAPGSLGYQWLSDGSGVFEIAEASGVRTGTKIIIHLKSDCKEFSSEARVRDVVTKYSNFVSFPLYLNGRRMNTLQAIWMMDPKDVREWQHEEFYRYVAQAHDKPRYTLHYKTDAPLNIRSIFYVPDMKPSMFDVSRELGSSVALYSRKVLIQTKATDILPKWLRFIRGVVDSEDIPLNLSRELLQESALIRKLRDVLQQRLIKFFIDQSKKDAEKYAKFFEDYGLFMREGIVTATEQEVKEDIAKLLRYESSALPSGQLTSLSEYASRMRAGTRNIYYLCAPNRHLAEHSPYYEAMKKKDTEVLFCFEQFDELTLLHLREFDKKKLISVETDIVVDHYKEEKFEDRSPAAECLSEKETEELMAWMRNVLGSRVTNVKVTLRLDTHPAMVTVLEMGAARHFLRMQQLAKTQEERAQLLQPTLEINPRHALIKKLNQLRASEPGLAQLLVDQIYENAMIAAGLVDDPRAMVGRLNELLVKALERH
Description: Inhibition of recombinant human N-terminal His6-tagged TRAP1 (60 to 704 residues) ATPase activity expressed in Escherichia coli BL21-CodonPlus-RIL after overnight incubation by BioMol green dye-based assay

HCT-116 [2] = test: Induction of apoptosis in human HCT116 cells at 10 uM after 24 hrs by FITC/Annexin-V/7-AAD staining-based FACS analysis; assay type: functional, cell-based
[3] = Drug uptake in mitochondria of human HCT116 cells at 1 uM after 12 hrs by mass spectrometric analysis; assay type: ADME; conditions: hct-116, 12 h
[4] = Drug uptake in cytosol of human HCT116 cells at 1 uM after 12 hrs by mass spectrometric analysis; assay type: ADME, subcellular, HCT-116
HCT-116 [5] = test: Antiproliferative activity against human HCT116 cells after 24 hrs by MTT assay; assay type: functional, cell-based; conditions: HCT-116, 24 h
HCT-116 [6] = test: Induction of apoptosis in human HCT116 cells at 0.1 to 10 uM after 24 hrs by FITC/Annexin-V/7-AAD staining-based FACS analysis; assay type: functional, cell-based
HCT-116 [7] = test: Induction of apoptosis in human HCT116 cells at 1 to 10 uM after 24 hrs by FITC/Annexin-V/7-AAD staining-based FACS analysis; assay type: functional, cell-based
[8] = target: Heat shock protein HSP 90-alpha (Homo sapiens, UniProt P07900); test: Inhibition of FITC-geldanamycin binding to recombinant human HSP90alpha expressed in Escherichia coli by fluorescence anisotropy method

SMILES | IC50 [1] | Activity (HCT-116 [2]) | Drug uptake [3] | Drug uptake [4] | IC50 (HCT-116 [5]) | Activity (HCT-116 [6]) | Activity (HCT-116 [7]) | IC50 [8] | Kd [8]
CCNC(=O)c1noc(-c2cc(C(C)C)c(O)cc2O)c1NC(=O)CCCCC[P+](c1ccccc1)(c1ccccc1)c1ccccc1.[Br-] | 25 µM | Active | Active | Not Active | 5.12 µM |  |  |  | 
CCNC(=O)c1noc(-c2cc(C(C)C)c(O)cc2O)c1NC(=O)CCCCC(=O)NCCCNCCNCCCN | 5 µM |  | Active | Not Active | 26.7 µM | Active |  |  | 
COc1cccc(-c2cc(F)ccc2[C@H]2Cc3nc(N)nc(C)c3C(=O)N2)n1 | 0.2 µM |  | Not Active |  |  | Active |  |  | 
CCNC(=O)c1noc(-c2cc(C(C)C)c(O)cc2O)c1NC(=O)c1ccc(OC)cc1 | 0.4 µM |  | Not Active |  | 0.87 µM | Active |  |  | 
CCNC(=O)c1noc(-c2cc(C(C)C)c(O)cc2O)c1NC(=O)c1ccc(C(=O)NC(=N)N)cc1 |  |  | Active | Not Active | 1.32 µM |  | Active | 0.021 µM | 0.0015 µM
CCNC(=O)c1noc(-c2cc(C(C)C)c(O)cc2O)c1NC(=O)CCN1CCOCC1 | 20 µM |  |  |  |  |  |  |  | 
CCNC(=O)c1noc(-c2cc(C(C)C)c(O)cc2O)c1NC(=O)CCCCC[n+]1ccccc1.[Br-] | 10 µM | Active |  | Not Active | 7.86 µM |  |  |  | 
CCNC(=O)c1noc(-c2cc(C(C)C)c(O)cc2O)c1NC(=O)CCCCCCc1ccc(C(=O)NC(=N)N)cc1 | 3 µM |  | Active | Not Active | 6.17 µM |  |  |  | 
